Assay results from ChEMBL document CHEMBL1133993, “Chemical synthesis of UDP-beta-L-arabinofuranose and its turnover to UDP-beta-L-arabinopyranose by UDP-galactopyranose mutase” (Bioorg Med Chem Lett, 2001).

Tested on: Escherichia coli
Assay: Kinetic constant using the compound as substrate was determined against Escherichia coli UDP-galactopyranose mutase

Km [µM] | k cat [s⁻¹] | Compound
22 | 27 | O=c1ccn(C2O[C@H](COP(=O)(O)OP(=O)(O)OC3O[C@H]([C@H](O)CO)[C@H](O)[C@H]3O)[C@@H](O)[C@H]2O)c(=O)[nH]1 (some centres undefined)
600 | 12 | O=c1ccn([C@@H]2O[C@H](COP(=O)(O)OP(=O)(O)O[C@H]3O[C@@H](CO)[C@H](O)[C@H]3O)[C@@H](O)[C@H]2O)c(=O)[nH]1
